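Results reflect a 48-hour exposure of cells in 96-well plates to compound at five concentrations. The concentration for 50% growth inhibition is given as GI50.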 Calls of active or inactive are those of the source. Cut-off read from the data, not from the text of the source: active = GI50 up to about 1.1 µM and inactive = higher.

These results are taken from ChEMBL document CHEMBL1201862, “PubChem BioAssay data set” (2004).

What all share (test): NCI anticancer screen, dose series, 48 h
The test system of assay [1] is 786-0.
Assay [2] relates to A498.
The subject of assay [3] is COLO 205.
The subject of assay [4] is EKVX.
For assay [5], the system named is HL-60.
The test system of assay [6] is HOP-92.
The subject of assay [7] is KM12.
Assay [8] has as its system Malme-3M.
Assay [9] has as its system NCI-H23.
In assay [10] the test system is OVCAR-3.
Assay [11] relates to OVCAR-4.
Assay [12] deals with OVCAR-8.
The test system of assay [13] is SF-295.
Assay [14] relates to SK-OV-3.
Assay [15] deals with SN12C.
The subject of assay [16] is SW-620.
In assay [17] the test system is TK-10.
The subject of assay [18] is UACC-257.
For assay [19], the system named is UO-31.
The subject of assay [20] is SK-MEL-2.

As to `COC(=O)C1(Cc2ccccc2)Cc2c(C)ccc(C)c2C1=O` (stereo not given), the GI50 was 37.5 µM (inactive) in assay [1]; 46.8 µM (inactive) in assay [2]; 12.4 µM (inactive) in assay [3]; 4.69 µM (inactive) in [4]; 20.2 µM (inactive) in assay [5]; 20.1 µM (inactive) in assay [6]. Further, the GI50 in assay [7] is 13.8 µM (inactive); in assay [8], 21.4 µM (inactive); in assay [9], 24.2 µM (inactive); in [10], 29.2 µM (inactive); in assay [11] it was 32.4 µM (inactive); in assay [12], 14.4 µM (inactive). The GI50 in [13] is 31.8 µM (inactive); in assay [14], 35.3 µM (inactive); in [15] it was 47.8 µM (inactive); in assay [16], 40.6 µM (inactive); in [17] it was 49 µM (inactive); in assay [18] it was 25.8 µM (inactive). Besides, the GI50 in [19] was 10.8 µM (inactive).

As for `CCOC(=O)C1=c2[nH]c3cccc4cccc(c43)n2C(=O)CC1`, the GI50 in [1] is 34.4 µM (inactive); in assay [2] it was > 100 µM (inactive); in assay [3] it was 43.8 µM (inactive); in assay [4], > 100 µM (inactive); in assay [5], 17.3 µM (inactive); in assay [6], 30.5 µM (inactive). The GI50 is 26 µM (inactive) in assay [7]; > 100 µM (inactive) in assay [9]; > 100 µM (inactive) in assay [10]; > 100 µM (inactive) in assay [11]; 56.5 µM (inactive) in assay [12]; > 100 µM (inactive) in assay [13]. The GI50 was > 100 µM (inactive) in assay [20]; > 100 µM (inactive) in [14]; > 100 µM (inactive) in assay [15]; 29 µM (inactive) in [16]; > 100 µM (inactive) in assay [17]; > 100 µM (inactive) in [18]. The GI50 in [19] is 38.6 µM (inactive).

For `CC(C)c1ccc(C(O)(C(=O)O)c2ccc(C(C)C)cc2)cc1`, the GI50 in [1] was 51.2 µM (inactive); in assay [2], 57.9 µM (inactive); in [3], > 100 µM (inactive); in assay [4] it was 51.8 µM (inactive); in assay [5], 39.2 µM (inactive); in assay [6], 31.8 µM (inactive). The GI50 in assay [7] is 39.6 µM (inactive); in [8], 78.7 µM (inactive); in [9], 42.1 µM (inactive); in [10], 26.1 µM (inactive); in assay [11] it was 42.6 µM (inactive); in assay [12] it was 54.1 µM (inactive). Also, the GI50 in assay [13] was 26.7 µM (inactive); in assay [14], 69.7 µM (inactive); in assay [15], 46 µM (inactive); in assay [16] it was 61.8 µM (inactive); in assay [17] it was 79.3 µM (inactive); in assay [18], > 100 µM (inactive). Moreover, the GI50 in assay [19] was 35.3 µM (inactive).

`COC(=O)NC(Nc1ccccn1)(C(F)(F)F)C(F)(F)F`: the GI50 in assay [1], in [2], in [4], in [5], in assay [6] and in assay [7] was > 100 µM (inactive) throughout. The GI50 in [8], in assay [9], in assay [10], in assay [12], in assay [20] and in assay [14] was > 100 µM (inactive) each time. Further, the GI50 in assay [16], in [17], in assay [18] and in assay [19] was > 100 µM (inactive) in each case.

Regarding `COc1ccc(N2C(=O)C3c4[nH]c5ccc(OC)cc5c4C4CCC(C(C)C)CC4C3C2=O)cc1` (stereo not given), the GI50 in [1] is 14.9 µM (inactive); in assay [2] it was 28 µM (inactive); in assay [3], > 100 µM (inactive); in assay [4], > 93.3 µM (inactive); in [5], 55.2 µM (inactive); in assay [6], > 54.2 µM (inactive). For the same compound, the GI50 is > 100 µM (inactive) in assay [7]; > 100 µM (inactive) in assay [9]; > 100 µM (inactive) in [10]; > 55.1 µM (inactive) in assay [11]; > 29.4 µM (inactive) in [12]; 31.2 µM (inactive) in assay [13]. Besides, the GI50 was > 59.4 µM (inactive) in [20]; 36.9 µM (inactive) in assay [14]; > 100 µM (inactive) in assay [15]; > 75.3 µM (inactive) in assay [16]; > 100 µM (inactive) in assay [17]; > 100 µM (inactive) in assay [18]. In addition, in assay [19], the GI50 is > 100 µM (inactive).

For `CC(NC(=O)C(N)Cc1ccc(O)cn1)C(=O)O` (stereo not given), the GI50 in assay [1], in assay [2], in assay [3], in assay [4], in assay [5] and in [6] was > 100 µM (inactive) throughout. For the same compound, the GI50 in [7], in [8], in [9], in assay [10], in assay [11] and in assay [12] was > 100 µM (inactive) each time. Also, the GI50 in assay [13], in [15], in assay [16], in [17], in [18] and in [19] was > 100 µM (inactive) each time.

As for `c1ccc(P(=Nc2ccccc2N=P(c2ccccc2)(c2ccccc2)c2ccccc2)(c2ccccc2)c2ccccc2)cc1`, the GI50 in assay [1] is 0.555 µM (active); in [2], 0.986 µM (active); in assay [3] it was 1.65 µM (inactive); in [4], 1.21 µM (inactive); in [5] it was 1.08 µM (active); in assay [6] it was 0.178 µM (active). Moreover, the GI50 in assay [7] is 0.834 µM (active); in assay [8], 0.256 µM (active); in assay [9], 0.337 µM (active); in assay [10], 0.164 µM (active); in [11], 1.25 µM (inactive); in assay [12], 0.364 µM (active). Also, the GI50 in assay [13] is 1.11 µM (active); in [14] it was 0.327 µM (active); in assay [15], 0.293 µM (active); in assay [16], 3.07 µM (inactive); in assay [17], 0.54 µM (active); in assay [18] it was 0.386 µM (active). Also, the GI50 in assay [19] was 2.31 µM (inactive).

As to `C/C(=C\CNc1ncnc2c1ncn2CCC(=O)OC(C)(C)C)CO`, the GI50 in assay [1], in assay [2], in assay [3], in assay [4], in assay [5] and in assay [6] was > 100 µM (inactive) each time. Moreover, the GI50 in assay [7], in assay [8], in assay [9], in assay [10], in assay [11] and in assay [12] was > 100 µM (inactive) throughout. The GI50 in assay [13], in assay [14], in [15], in assay [16], in assay [17] and in assay [18] was > 100 µM (inactive) each time. Moreover, in [19], the GI50 is > 100 µM (inactive).

In the case of `COC(=O)CCCc1c(-c2[nH]c3ccccc3c2CCCC(=O)OC)[nH]c2ccccc12`, the GI50 in assay [1], in assay [2], in assay [3], in [4], in [5] and in [6] was > 100 µM (inactive) in each case. Moreover, the GI50 in [7] is > 100 µM (inactive); in assay [8] it was 39.3 µM (inactive); in assay [9] it was > 100 µM (inactive); in [10], > 100 µM (inactive); in assay [12] it was > 100 µM (inactive); in assay [13] it was > 100 µM (inactive). Also, the GI50 in [20], in [14], in [15], in [16], in assay [17] and in [18] was > 100 µM (inactive) throughout. For the same compound, the GI50 in assay [19] is > 100 µM (inactive).

Regarding `CC(C)(CN1CCOCC1)C(=O)/C=C/c1ccc(/C=C/C(=O)C(C)(C)CN2CCOCC2)cc1`, the GI50 in [1] is 2 µM (inactive); in [2] it was 1.97 µM (inactive); in [3], 1.64 µM (inactive); in [4], 1.65 µM (inactive); in assay [5], 1.45 µM (inactive); in assay [6], 2.33 µM (inactive). Also, the GI50 in [7] is 1.54 µM (inactive); in assay [8] it was 2.12 µM (inactive); in [9], 1.58 µM (inactive); in assay [10] it was 1.07 µM (active); in assay [11], 0.942 µM (active); in assay [12] it was 1.45 µM (inactive). In addition, the GI50 is 2.21 µM (inactive) in assay [13]; 3.85 µM (inactive) in [14]; 1.35 µM (inactive) in assay [15]; 1.01 µM (active) in [16]; 1.86 µM (inactive) in assay [17]; 1.99 µM (inactive) in [18]. In addition, the GI50 in [19] was 1.75 µM (inactive).

In the case of `CC(=O)/C(=C/NC(=S)N/N=C1\C(=O)Nc2ccccc21)C(=O)Nc1ccccc1C`, the GI50 was 82.2 µM (inactive) in [1]; 57.7 µM (inactive) in [2]; > 100 µM (inactive) in assay [3]; 70.6 µM (inactive) in assay [4]; 41 µM (inactive) in [5]; > 100 µM (inactive) in assay [6]. Moreover, the GI50 was 98.9 µM (inactive) in assay [7]; > 100 µM (inactive) in assay [9]; 75.2 µM (inactive) in [10]; > 100 µM (inactive) in [11]; > 100 µM (inactive) in assay [12]; > 100 µM (inactive) in assay [13]. Besides, the GI50 in assay [20], in assay [14], in [15], in assay [16], in [17] and in assay [18] was > 100 µM (inactive) throughout. For the same compound, in assay [19], the GI50 was 44.3 µM (inactive).
